# In US9238670B2, “Aminoglycoside antibiotics with reduced ototoxicity” (priority 2013, dated 2016):
# Like-named read-outs stand apart in the source and are kept apart here.
# Assays:
# [1] = test system: hair cells of cochlea organ of corti cultures; assay: in vitro
# Protocol: For example, an ototoxicity test that can be used includes the steps of (1) treating organ of corti cultures with a compound of the invention and a parent aminoglycoside compound for a certain period of time (e.g., 1 hour), respectively; (2) washing and then culturing the treated tissue for some period of time (e.g., 2 days); (3) fixing and staining the tissue so that hair cell counts can be obtained; and (4) comparing the hair cell counts between the tissue treated by the compound of the invention and the tissue treated by the parent aminoglycoside compound.
# Ototoxicity was also assayed using cochlea organ of corti cultures. The cultures were made at 4 days post birth (P4), cultured for 1 day and then treated for 1 hour with test compound. The tissue was then washed and cultured for an additional two days at which time the tissue is fixed and stained so that hair cell counts could be obtained. This method is similar to that used previously in characterizing aminoglycoside ototoxicity (Alharazneh et al., 2011). Fixed regions at the apex, middle, and base of the cochlea were imaged and cell counts obtained. […] Data were quantified across cochlear regions for this same compound. Quantification was by counting the number of outer hair cells present over a given distance. […] A dose response curve was created for the parent compound as well as the tested novel aminoglycoside. […] Other sisomicin derivatives were also tested for ototoxicity.
# mouse [2] = settings: in vivo
# E. coli = E. coli assay of minimal inhibitory (MIC) and minimal bactericidal (MBC) concentrations; type: cell-based; settings: FIGS. 1A and 1B
# Protocol: FIGS. 1A and 1B are bar graphs showing antimicrobial activities of a variety of sisomicin derivatives (MS=methyl sulfonyl, PS=phenyl sulfonyl, BZ=benzoyl, SiRho=rhodamine; and 1N and 3″ indicate substituents' position on sisomicin). The negative values reflect an arbitrary value indicating no detectable level of activity.
# Both antimicrobial activity and ototoxicity in several of the synthesized compounds were assessed. To test antimicrobial activity, an E. coli assay was used to test both minimal inhibitory concentrations (MIC) as well as minimal bactericidal concentrations (MBC). A cross section of results was presented in FIG. 1, for control and a variety of tested compounds. […] Antimicrobial activity remained stable for each compound over time.
# mouse [3] = assay: LD50 after intraperitoneal injection in mouse model; type: in vivo; settings: FIG. 5
smiles,measurement,setting,value
"CN(C(=O)c1ccccc1)[C@@H]1[C@@H](O)[C@@H](O[C@@H]2[C@@H](O)[C@H](O[C@H]3OC(CN)=CC[C@H]3N)[C@@H](N)C[C@H]2N)OC[C@]1(C)O [3″N-benzoyl sisomicin, 3″-Benzoyl sisomicin]",less toxic than sisomicin (ototoxicity),[1]; 1 h,about 60%
"CN([C@@H]1[C@@H](O)[C@@H](O[C@@H]2[C@@H](O)[C@H](O[C@H]3OC(CN)=CC[C@H]3N)[C@@H](N)C[C@H]2NS(=O)(=O)c2ccccc2)OC[C@]1(C)O)S(=O)(=O)c1ccccc1 [1N,3″N-phenyl sulfonyl sisomicin, 1,3″-dibenzenesulfonyl-sisomicin]",ototoxicity compared in words,[1],about equally ototoxic as sisomicin
"CN([C@@H]1[C@@H](O)[C@@H](O[C@@H]2[C@@H](O)[C@H](O[C@H]3OC(CN)=CC[C@H]3N)[C@@H](N)C[C@H]2N)OC[C@]1(C)O)S(C)(=O)=O [3″N-methyl sulfonyl sisomicin, 3″-methylsulfonyl sisomicin]",ototoxicity compared in words,[1]; 1 h,about equally non-ototoxic as 1N-methyl sulfonyl sisomicin
"CN([C@@H]1[C@@H](O)[C@@H](O[C@@H]2[C@@H](O)[C@H](O[C@H]3OC(CN)=CC[C@H]3N)[C@@H](N)C[C@H]2N)OC[C@]1(C)O)S(=O)(=O)c1ccccc1 [3″N-phenyl sulfonyl sisomicin, 3″-benzenesulfonyl-sisomicin]",ototoxicity compared in words,[1],about equally ototoxic as sisomicin
"CN[C@@H]1[C@@H](O)[C@@H](O[C@@H]2[C@@H](O)[C@H](O[C@H]3OC(CN)=CC[C@H]3N)[C@@H](N)C[C@H]2N)OC[C@]1(C)O [sisomicin, reference compound]",Kd at 1 h,[1],120 µM
same,hair cells in stained tissue (FIG. 2),[1],no hair cells remained
same,"outer hair cells killed, apex of cochlea",[1]; 1 h,about 60%
same,"outer hair cells killed, base and middle of cochlea",[1]; 1 h,more than 90%
same,hair cell loss in histological preparations of the cochlea,mouse [2],significant hair cell loss
"CN[C@@H]1[C@@H](O)[C@@H](O[C@@H]2[C@@H](O)[C@H](O[C@H]3OC(CN)=CC[C@H]3N)[C@@H](N)C[C@H]2NC(=O)c2ccccc2)OC[C@]1(C)O [1N benzoyl sisomicin, 1-benzoyl sisomicin]",less toxic than sisomicin (ototoxicity),[1]; 1 h,30%
"CN[C@@H]1[C@@H](O)[C@@H](O[C@@H]2[C@@H](O)[C@H](O[C@H]3OC(CN)=CC[C@H]3N)[C@@H](N)C[C@H]2NS(=O)(=O)c2ccccc2)OC[C@]1(C)O [1N phenyl sulfonyl sisomicin, 1-Benzenesulfonyl-sisomicin]",less toxic than sisomicin (ototoxicity),[1]; 1 h,about 80%
"CN[C@@H]1[C@@H](O)[C@@H](O[C@@H]2[C@@H](O)[C@H](O[C@H]3OC(CN)=CC[C@H]3N)[C@@H](N)C[C@H]2NS(C)(=O)=O)OC[C@]1(C)O [1N-methyl sulfonyl sisomicin, 1-N-methylsulfonyl sisomicin]","antimicrobial activity (MIC, MBC)",E. coli,retained antimicrobial activity
same,Kd at 1 h,[1],1500 µM
same,fold less toxic than the parent compound,[1],more than ten-fold shift in sensitivity for toxicity
same,hair cell loss at any of the cochlea regions tested,[1],did not cause any hair cell loss
same,hair cells in stained tissue (FIG. 2),[1],no hair cell loss
same,fold less toxic than the parent compound,[1]; 1 h,more than 10 ×
same,LD50 relative to LD50 of the parent sisomicin (fold higher),mouse [3],3 ×
same,hair cell loss in histological preparations of the cochlea,mouse [2],no loss of hair cells
"CN([C@@H]1[C@@H](O)[C@@H](O[C@@H]2[C@@H](O)[C@H](O[C@H]3OC(CN)=CC[C@H]3N)[C@@H](N)C[C@H]2NS(C)(=O)=O)OC[C@]1(C)O)S(C)(=O)=O [1N,3″N-methyl sulfonyl sisomicin, 1,3″-N-bis-methylsulfonyl sisomicin]",ototoxicity compared in words,[1]; 1 h,about equally non-ototoxic as 1N-methyl sulfonyl sisomicin
